Series [1] concerns human pancreatic adenocarcinomas. As to the kind of experiment: Growth of human pancreatic adenocarcinomas in vivo in athymic mice. Further details: species or system NCr athymic nude mice. The source says:
The animals used in the whole animal studies were NCr athymic nude mice. The NCr athymic outbred stock is the standard athymic model for National Cancer Institute (NCI) studies as well as many pharmaceutical and institutional oncology screening programs. The nude gene in homozygous (nu/nu) mice causes the lack of fur and an abnormal thymus. The deficiency in T cell function allows athymic mice to accept and grow xenografts as well as allograftsof normal and malignant tissues. Heterozygous (nu/+) animals carry the recessive nude gene on one chromosome only and therefore have a normal thymus triggered immune system. NCr-nu breeder stock was obtained from the NCI in 1993 after several years of random breeding. It was hysterectomy derived to achieve germfree status prior to its introduction into IBU colonies. This outbred stock has both BALB/c inbred and NIH(S) outbred stock in its genetic background. The homozygotes (nu/nu) used for the proposed investigations are albino animals with the model number of NCRNU-M from […] also being called Tac:Cr:(NCr)-Foxn1^nu: Six week old nude mice were utilized for these studies as they weight approximately 20 grams at this time period and the subcutaneous pumps used to infuse the respective four atrial natriuretic peptides were designed for 20 gram and larger mice. These mice accept malignant tissues. After one week of accliminization to their new surroundings, the mice have 1×10^6 of the adenocarcinoma cells placed under the skin on their backs. […] Tumor volume was calculated by the formula V (volume)=a×b^2/2 where “a” is the largest superficial diameter and b is the smallest superficial diameter. […] When the tumors first became palpable their volume was recorded and then an osmotic pump (Alzet Model 1002) containing either 0.9% saline (control infusion) or one of the respective peptide hormones in 0.9% saline was placed subcutaneously between the shoulder blades under anesthesia (pentobarbital 40 mg/kg body wt intraperitoneally). […]

Series [2] deals with pancreatic adenocarcinoma cell line, ATCC number CRL-2119. As to the kind of experiment: Number of pancreatic adenocarcinoma cells in culture, counted by microscope. It is filed as cell-based, human. The source says: The pancreatic adenocarcinoma cell line, ATCC number CRL-2119, was derived in 1985 from a nude mouse xenograft of a primary tumor removed from the head of the pancreas. It is a moderate to well-differentiated pancreatic adenocarcinoma of ductal origin. These pancreatic adenocarcinoma cells are stimulated to proliferate in culture by insulin, insulin-like growth factor I (IGF-I), epidermal growth factor (EGF), and transforming growth factor alpha (TGF alpha). These adenocarcinoma cells contain significant concentrations of tumor-associated antigens CEA, CA 125, and CA 19-9. In culture, these adenocarcinoma cells form monolayers of morphologically heterogeneous polar epithelial cells. These cells are tumorgenic in that they form tumors in athymic nude mice at the site of inoculation that are histologically similar to the tumor of origin.
Propagation of these cells was in Dulbecco's modified Eagle's plus Ham's F12-A 1:1 mixture of Dulbecco's modified Eagle's medium and Ham's F12 medium containing 1.2 g/L of sodium bicarbonate (Sigma Chemical Co., St. Louis, Mo.) supplemented with 15 mM HEPES and fetal bovine serum, 10%, at a temperature of 37° C. as recommended by the ATCC.
These pancreatic adenocarcinoma cells were subcultured (passaged) by removing spent (i.e., old) medium by aspiration, and then adding calcium and magnesium free Hank's Balanced Salt Solution with 0.25% trypsin and 0.03% ethylenediaminetetracetic acid (EDTA). The culture was allowed to sit at room temperature for 2 to 5 minutes. Fresh medium was added to the adenocarcinoma cells which were dispensed into new flasks, with subculture every 6 to 8 days. The growth medium was changed every three days.
After these adenocarcinoma cells were subcultured for 24 hours, they were then seeded to coverslips and transferred to 24 microwell plates (NUCOLON, Roskilde Denmark), with 1 ml Dulbeco Modified Eagle's (DME)/[…] nutrient culture media (Sigma Chemical Co.) with 10% fetal bovine serum (Atlanta Biologicals, Norcross, Ga.). After 24 hours, wells were washed twice with Dulbecco's Modified Eagle's/Ham's F12 with 0.1% bovine serum albumin (Sigma-Aldrich, St. Louis, Mo.) and allowed to incubate in this serum free medium for an additional 24 hour period of serum deprivation. Serum-free media was utilized to remove all variables (EGF, etc.) present in serum in order that interpretation of any data obtained would be straightforward. After 24 hours of serum deprivation, media volume was reduced to 250 μL per well with or without the respective peptide hormones at their 1 μM concentrations (1% of this volume). The adenocarcinoma cells were then incubated for various periods of time (24, 48, 72, and 96 hours).At the end of the above time periods, hematoxylin was added for 5 minutes to make the cells more visible for counting, and then they were washed for 5 minutes. The coverslips were then placed face down on microscope slides with the addition of 6 μl of histologic grade phosphate buffered saline (PBS)/I-glycine that had been filtered immediately before use with a 0.22 μm polyethersulfone, nonpyrogenic, sterile, low protein binding membrane (Corning 43117, Corning Inc., Corning, N.Y.). The number of adenocarcinoma cells were then counted with a cell counter evaluating ten fields of the microscope slide at 40× along the X-axis with an Olympus BH-2 microscope (Atlanta, Ga.). This evaluation was repeated on six separate occasions with the number of adenocarcinoma cells reflecting 60 observations for each group, i.e., 60 observations for controls and 60 observations for each of the four groups with respective peptide hormones. The only variable in this investigation was whether one of the four peptide hormones was added to the pancreatic adenocarcinoma cells. Otherwise all the adenocarcinoma cells were treated the same, i.e., with same culture medium, time of incubation, and processing of cells for the various investigations. […]

With “vessel dilator: a.a. 31-67 of the 126 a.a. ANP prohormone; peptide hormone from Peninsula Laboratories”, in series [1] (139 ng/min/kg infusion in whole animals), the side effects result is “no side effects”. For the same substance, the “growth of the human adenocarcinomas” value in series [1] (139 ng/min/kg of body weight, subcutaneous infusion pump, 14 days, n=14) is given as “stopped the growth”. In series [1] (139 ng/min/kg, 14 days, saline-treated increased 100 mm^3), the “change in tumor volume during the two weeks of infusion” value was “no increase in volume”. The “decrease in the number of adenocarcinoma cells” value in series [2] (1 μM, 24 hours, vs untreated cells) amounted to 65%; in series [2] (1 μM, 72 hours, vs untreated cells), 70%; in series [2] (1 μM, 96 hours, vs untreated cells), 70%; in series [2] (time not stated) it was 70%. In series [2] (1 μM, 24 hours, untreated 183.4+/−8), the “number of adenocarcinoma cells” value is given as 63.8+/−4 cells per high powered field. In addition, the “number of cancer cells compared to controls” value in series [2] (1 μM, 48 hours) stood at 68%.

The record behind these values is patent US6943147B2, “Cancer treatment using proANP peptides” (University of South Florida, priority 2003, dated 2005).
